Laboratory results: paper PMC9765458 (Science Translational Medicine, 2022)
pIC50: −log10 of the molar value. Like-named read-outs stand apart in the source and are kept apart here.

How the values were obtained:
[1] = system: wild-type VSV-G-3CL^pro-L; assay: microbe, parasite or virus in culture; format: cell-based
[2] = system: recombinant wt SARS-CoV-2-mCherry (rWA1); assay: microbe, parasite or virus in culture; format: cell-based

For `CC(C)(C)[C@H](NC(=O)C(F)(F)F)C(=O)N1C[C@H]2[C@@H]([C@H]1C(=O)N[C@H](C#N)C[C@@H]1CCNC1=O)C2(C)C` [Nirmatrelvir, nirmatrelvir], the replication inhibited [1] was 10^6 fold, the pIC50 ([1]; Vesicular stomatitis virus, BHK-21, 24 h, read-out: half maximal inhibitor concentration (IC50) of virus replication) was ~6.73 and the pIC50 ([2]; Severe acute respiratory syndrome coronavirus 2, read-out: IC50 48 hpi) was 8.06. It also gave a pIC50 ([2]; Severe acute respiratory syndrome coronavirus 2, read-out: IC50 72 hpi) of 8.07.
